In PubChem BioAssay AID1963848 (Molecular Pharmacology Branch, DTP, NCI, 2024):

System: 379773-124-R-J2-PDC spheroid viability
Assay: Anticancer human tumor 379773-124-R-J2-PDC patient-derived endometrial carcinoma cell line growth inhibition [POLQ]
Conditions: spheroids with HUVEC and MSC; for IC50: curve of first compound; for viability, T/C: stronger effect = lower value
In short: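 Patient-derived tumour cells were co-cultured with HUVEC and mesenchymal stem cells as multicellular spheroids at 37 °C. They were treated with POLQ inhibitors (novobiocin, ART-558, RP6685) alone or combined with other agents. Top concentrations were at or near clinical Cmax (otherwise 10 microM; SN-38 at 1 microM), decreasing in half-log steps.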

[1] = second compound 0.0316 µM, first compound 0.0316 µM
[2] = second compound 0.0316 µM, first compound 0.1 µM
[3] = second compound 0.0316 µM, first compound 0.316 µM
[4] = second compound 0.0316 µM, first compound 1 µM
[5] = second compound 0.0316 µM, first compound 3.16 µM
[6] = second compound 0.0316 µM, first compound 10 µM
[7] = second compound 0.1 µM, first compound 0.0316 µM
[8] = second compound 0.1 µM, first compound 0.1 µM
[9] = second compound 0.1 µM, first compound 0.316 µM
[10] = second compound 0.1 µM, first compound 1 µM
[11] = second compound 0.1 µM, first compound 3.16 µM
[12] = second compound 0.1 µM, first compound 10 µM
[13] = second compound 0.316 µM, first compound 0.0316 µM
[14] = second compound 0.316 µM, first compound 0.1 µM
[15] = second compound 0.316 µM, first compound 0.316 µM
[16] = second compound 0.316 µM, first compound 1 µM
[17] = second compound 0.316 µM, first compound 3.16 µM
[18] = second compound 0.316 µM, first compound 10 µM
[19] = second compound 1 µM, first compound 0.0316 µM
[20] = second compound 1 µM, first compound 0.1 µM
[21] = second compound 1 µM, first compound 0.316 µM
[22] = second compound 1 µM, first compound 1 µM
[23] = second compound 1 µM, first compound 3.16 µM
[24] = second compound 1 µM, first compound 10 µM
[25] = second compound 3.16 µM, first compound 0.0316 µM
[26] = second compound 3.16 µM, first compound 0.1 µM
[27] = second compound 3.16 µM, first compound 0.316 µM
[28] = second compound 3.16 µM, first compound 1 µM
[29] = second compound 3.16 µM, first compound 3.16 µM
[30] = second compound 3.16 µM, first compound 10 µM
[31] = second compound 10 µM, first compound 0.0316 µM
[32] = second compound 10 µM, first compound 0.1 µM
[33] = second compound 10 µM, first compound 0.316 µM
[34] = second compound 10 µM, first compound 1 µM
[35] = second compound 10 µM, first compound 3.16 µM
[36] = second compound 10 µM, first compound 10 µM
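Further: spheroids exposed to drugs for seven days before readout.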
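Wherever viability, T/C is given: percent viability relative to DMSO vehicle control taken as 100%.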

`C#Cc1c(F)ccc2cc(O)cc(-c3ncc4c(N5CC6CCC(C5)N6)nc(OCC56CCCN5CC(F)C6)nc4c3F)c12` (stereo unspecified) + Cc1cccc(N(C)C(=O)C2C(O)CCN2c2nc(C)cc(C(F)(F)F)c2C#N)c1 was tested, and the IC50 (second compound 0.0316 µM) was > 10 µM, the IC50 (second compound 0.1 µM) was > 10 µM and the IC50 (second compound 0.316 µM) was > 10 µM. For the same compound, the IC50 (second compound 1 µM) was > 10 µM, the IC50 (second compound 3.16 µM) was > 10 µM and the IC50 (second compound 10 µM) was > 10 µM. For the same compound, the viability, T/C [1] was 81.5%, the viability, T/C [2] was 89.3% and the viability, T/C [3] was 84%. The viability, T/C [4] was 74.6%, the viability, T/C [5] was 84% and the viability, T/C [6] was 82%. It also gave a viability, T/C [7] of 93.8%, a viability, T/C [8] of 68.7% and a viability, T/C [9] of 85.8%. The viability, T/C [10] was 75.2%, the viability, T/C [11] was 84.8% and the viability, T/C [12] was 93%. The viability, T/C [13] was 90.8%, the viability, T/C [14] was 93.4% and the viability, T/C [15] was 77.9%. For the same compound, the viability, T/C [16] was 86.5%, the viability, T/C [17] was 95.5% and the viability, T/C [18] was 88.4%. The viability, T/C [19] was 80%, the viability, T/C [20] was 78.9% and the viability, T/C [21] was 73.2%. For the same compound, the viability, T/C [22] was 82.2%, the viability, T/C [23] was 95.9% and the viability, T/C [24] was 90.6%. The viability, T/C [25] was 78.9%, the viability, T/C [26] was 87.3% and the viability, T/C [27] was 85.2%. For the same compound, the viability, T/C [28] was 80%, the viability, T/C [29] was 86.2% and the viability, T/C [30] was 79.4%. The viability, T/C [31] was 84.9%, the viability, T/C [32] was 79.7% and the viability, T/C [33] was 74.2%. For the same compound, the viability, T/C [34] was 78.4%, the viability, T/C [35] was 88.9% and the viability, T/C [36] was 93.8%.

`O=c1[nH]cc(F)c(=O)[nH]1` + Cc1cccc(N(C)C(=O)C2C(O)CCN2c2nc(C)cc(C(F)(F)F)c2C#N)c1 was tested, and the IC50 (second compound 0.0316 µM) was > 10 µM, the IC50 (second compound 0.1 µM) was > 10 µM and the IC50 (second compound 0.316 µM) was > 10 µM. The IC50 (second compound 1 µM) was > 10 µM, the IC50 (second compound 3.16 µM) was > 10 µM and the IC50 (second compound 10 µM) was > 10 µM. For the same compound, the viability, T/C [1] was 95%, the viability, T/C [2] was 88.5% and the viability, T/C [3] was 88.2%. For the same compound, the viability, T/C [4] was 77.2%, the viability, T/C [5] was 76.6% and the viability, T/C [6] was 61.5%. For the same compound, the viability, T/C [7] was 95.5%, the viability, T/C [8] was 90.7% and the viability, T/C [9] was 93.4%. It also gave a viability, T/C [10] of 85.8%, a viability, T/C [11] of 82% and a viability, T/C [12] of 58.7%. The viability, T/C [13] was 91.8%, the viability, T/C [14] was 88.7% and the viability, T/C [15] was 94%. For the same compound, the viability, T/C [16] was 74.5%, the viability, T/C [17] was 82% and the viability, T/C [18] was 68.8%. The viability, T/C [19] was 92.2%, the viability, T/C [20] was 90.4% and the viability, T/C [21] was 82.2%. The viability, T/C [22] was 86.3%, the viability, T/C [23] was 74.2% and the viability, T/C [24] was 67.7%. The viability, T/C [25] was 84.9%, the viability, T/C [26] was 97.8% and the viability, T/C [27] was 79.8%. For the same compound, the viability, T/C [28] was 76.5%, the viability, T/C [29] was 77.3% and the viability, T/C [30] was 52.9%. The viability, T/C [31] was 78.7%, the viability, T/C [32] was 96.6% and the viability, T/C [33] was 96.4%. For the same compound, the viability, T/C [34] was 83%, the viability, T/C [35] was 75% and the viability, T/C [36] was 56.2%.

For `C=CC(=O)N1CCN(c2nc(=O)n(-c3c(C)ccnc3C(C)C)c3nc(-c4c(O)cccc4F)c(F)cc23)C(C)C1` (stereo unspecified) + COC1C(OC(N)=O)C(O)C(Oc2ccc3c(O)c(NC(=O)c4ccc(O)c(CC=C(C)C)c4)c(=O)oc3c2C)OC1(C)C, the IC50 (second compound 0.0316 µM) was > 10 µM, the IC50 (second compound 0.1 µM) was > 10 µM and the IC50 (second compound 0.316 µM) was > 10 µM. The IC50 (second compound 1 µM) was > 10 µM, the IC50 (second compound 3.16 µM) was > 10 µM and the IC50 (second compound 10 µM) was > 10 µM. The viability, T/C [1] was 87.3%, the viability, T/C [2] was 78.7% and the viability, T/C [3] was 91.3%. For the same compound, the viability, T/C [4] was 85.1%, the viability, T/C [5] was 85.7% and the viability, T/C [6] was 72.1%. For the same compound, the viability, T/C [7] was 87.3%, the viability, T/C [8] was 87.2% and the viability, T/C [9] was 82.2%. It also gave a viability, T/C [10] of 91.1%, a viability, T/C [11] of 87.9% and a viability, T/C [12] of 95%. The viability, T/C [13] was 91.2%, the viability, T/C [14] was 86.7% and the viability, T/C [15] was 86.8%. For the same compound, the viability, T/C [16] was 85.1%, the viability, T/C [17] was 79.3% and the viability, T/C [18] was 82.6%. It also gave a viability, T/C [19] of 92.1%, a viability, T/C [20] of 94.8% and a viability, T/C [21] of 93.9%. It also gave a viability, T/C [22] of 88.8%, a viability, T/C [23] of 73.8% and a viability, T/C [24] of 95.8%. For the same compound, the viability, T/C [25] was 73.2%, the viability, T/C [26] was 84.6% and the viability, T/C [27] was 82.9%. For the same compound, the viability, T/C [28] was 85%, the viability, T/C [29] was 85.9% and the viability, T/C [30] was 72.1%. The viability, T/C [31] was 91.1%, the viability, T/C [32] was 85.1% and the viability, T/C [33] was 81.5%. It also gave a viability, T/C [34] of 80.5%, a viability, T/C [35] of 86% and a viability, T/C [36] of 89.4%.
